Literature values in patent US12064376B2, “Rho kinase inhibitor releasing implants and related methods of use” (priority 2020, dated 2024).

What was measured:
[1] = system: Porcine corneal endothelial cells (CECs); settings: 10 μM Y-27632 or 2.5 μM H-1152, 2, 24 and 48 hours
[2] = system: rabbit model of corneal endothelial dysfunction; settings: 1 mM topical, 2 drops QID three days then TID seven days
[3] = system: monkey model of corneal endothelial cell damage
[4] = system: rabbit corneal endothelial damage model; settings: scrape model
failed descemetorhexis = settings: patient with failed descemetorhexis
[5] = system: human corneal endothelial cells (HCEC); settings: ripasudil 0.3 to 30 μM, 48 hours, HCEC in vitro
[6] = system: rabbit corneal endothelial damage model; settings: freeze model, topical 0.4% or 0.8% drops BID or QID
[7] = by 24 weeks, eleven patients, 1×10^6 human CECs per 300 μL with Y-27632
[8] = at 1 year, MCEC and ROCK inhibitor eyes

Cc1cncc2cccc(S(=O)(=O)N3CCCNC[C@@H]3C)c12 [H-1152]
cell morphology [1]: monolayer with polygonal structure and tight junctions
migration of cells from the scratch [1]: enhanced
corneal thickness versus controls [2]: less

C[C@@H](N)[C@H]1CC[C@H](C(=O)Nc2ccncc2)CC1 [Y-27632]
cell morphology [1]: monolayer with polygonal structure and tight junctions
migration of cells from the scratch [1]: enhanced
preserving corneal clarity (Fuch's corneal dystrophy; Fuch's corneal dystrophy, eye drop): effective
corneal thickening (Fuch's corneal dystrophy; Fuch's patients): decrease
efficacy by severity of corneal endothelial dysfunction (Fuch's corneal dystrophy; mild (central edema) versus severe (diffuse edema)): effective in mild cases (central edema) of corneal endothelial dysfunction, but not severe (diffuse edema)
number of patients with >500 cells/mm^2 (bullous keratopathy; [7]): 11
number of patients with >1000 cells/mm^2 (bullous keratopathy; [7]): 10
adverse events (bullous keratopathy; eleven patients): One case of steroid induced intraocular pressure (IOP) and no other adverse events
corneal thickness (bullous keratopathy; in all but 1 case, corneas became clear): < 630 μm
survival and engraftment of injected cultured endothelial cells ([3]; 5×10^5 CECs in 200 μl with ROCK inhibitor, intracameral): enhanced
adverse events ([3]; MCEC with concomitant ROCK inhibitor, intracameral injection): without adverse events such as glaucoma
corneal clarity [3, 8]: clear corneas
corneal endothelial cell density [3, 8]: 2000 cells/mm^2

C[C@H]1CNCCCN1S(=O)(=O)c1cccc2cncc(F)c12 [ripasudil]
treated eyes clear ([4]; day 14, control 0/6): 5/6
corneal thickening ([4]; no change with control): ⅓
outcome of case study (failed descemetorhexis): salvaged patient
DNA and endothelial cell proliferation [5]: significantly enhanced
corneal haze versus controls [6]: less hazy corneas
proliferation in treated eyes [6]: better in the ROCK inhibitor treated eyes in a dose dependent fashion
wound size versus controls [6]: smaller
